Assay results as given in patent publication US20220098197A1, “SALTS OF HETEROCYCLIC COMPOUND AND USE THEREOF” (priority 2019, published 2022).

How the values were obtained:
CS-induced ALI mice = assay: CS-induced lung injury model: albumin assay in BALF; format: in vivo, Balb/c mice; conditions: CT-NA 10 and 30 mg/kg intragastric; CS exposure; p<0.01
Protocol: Model preparation: The mice were randomly divided into 5 groups (12 mice in each group), which were the control group (the mice were exposed to fresh air), the saline group (the mice were exposed to cigarette smoke), dexamethasone (Dex) group (1 mg/kg) (the mice were exposed to cigarette smoke), CT-NA 10 mg/kg group and CT-NA 30 mg/kg group (the mice were exposed to cigarette smoke). According to the grouping, the mice were intragastrically administered saline, Dex and CT-NA, respectively. Thereafter, the mice were exposed to fresh air or cigarette smoke generated from 3R4F research-grade cigarettes (containing about 600 mg TPM/m^3 and 29.9 mg nicotine/m^3) in a cuboid plastic box (65×50x×45 cm). Ten cigarettes were burned every day for seven days. After one cigarette was burned, the next cigarette was ignited. The daily body weight and general condition of the mice were checked. 24 hrs after the last exposure to the cigarette smoke, the partial pressure of oxygen (PO2) of all mice was measured by the Moor VMS-OXY™ measuring instrument, which was used to measure the oxygenated/deoxygenated hemoglobin concentration and oxygen saturation (percentage) in the microcirculation at the wavelength range of 500 to 650 nm. […] The albumin concentration ratio assessed from BALF represented not only the albumin level but also the permeability of the pulmonary microvascular.

RAW 264.7 macrophages [1] = assay: In vitro cytokines assay via ELISA, CSE- and PGD2-stimulated macrophages; format: cell-based, mouse; conditions: CT-NA 10 and 100 μM, p<0.01
Protocol: (§1) The cigarette smoke generated from 3R4F research grade cigarettes was passed through 50 ml PBS by a vacuum pump. Five cigarettes were used to make smoke that passed 50 ml PBS, and each cigarette was lit for 5 minutes. The control solution was prepared in the absence of cigarettes by using a similar method. After extraction, CSE was stored at −80° C.
(§2) RAW 264.7 macrophages were added to two 12-well plates. Thereafter, the medium of the 12-well plate was replaced with serum-free RPMI-1640 medium, and the macrophages were incubated for 10-12 hrs and then exposed to CT-NA (10 and 100 μM) for 1 hour. One hour later, one 12-well plate was treated with CSE (4%) and the other with PGD2 (10 μM) for 24 hrs. After the treatment, the supernatant of the treated cells was collected to measure the protein levels of TNF-α, IL-1β, IL-6, KC and IL-10 extracellularly secreted using ELISA kits according to the method of the instructions. Subsequently, RNA samples from each treated plate were extracted and reverse-transcripted into cDNA with HiScript5xQRTSuperMix, and then subjected to RT-PCR. RT-PCR was performed with the BioRad CFX96 Touch™ Real-Time PCR Detection System (BioRad, USA) using AceQ® qPCR SYBR Green Master Mix. And the threshold cycle numbers were obtained using BioRad CFX Manager Software. The primers used for RT-PCR reaction were shown in Table 1. β-actin was used as an internal control. The RT-PCR reactions were triplicated and the relative expression of target mRNA was normalized by the respective β-actin.

RAW 264.7 macrophages [2] = assay: In vitro cytokines mRNA by RT-PCR, CSE- and PGD2-stimulated macrophages; format: cell-based, mouse; conditions: CT-NA 10 and 100 μM, p<0.01
Protocol: as §1, §2

LPS-induced ALI mice = assay: LPS-induced ALI model: pulmonary vascular permeability by Evans blue dye; format: in vivo, Balb/c mice; conditions: CT-NA 10 mg/kg (P<0.05) or 30 mg/kg (P<0.01), Dex 1 mg/kg (P<0.01)
Protocol: Evans Blue was a dye that could quickly bind to albumin and was remains restricted within blood vessels because the endothelium was impermeable to albumin under normal physiological conditions. Pulmonary microvascular permeability was assessed by measuring the extravasation of Evans blue dye in the lungs. The method was briefly described as follows. The mice were randomly divided into control group (12 mice) and LPS group (48 mice). The LPS group (48 mice) was further divided into four subgroups (each subgroup contains 12 mice). To measure pulmonary microvascular permeability, the unanaesthetized mice of LPS group received intragastric instillation of NS, CT-NA at 10 mg/kg or 30 mg/kg, or Dex at 1 mg/kg respectively. One hour later, the anaesthetized mice were intratracheally instilled with NS (control group) and LPS (all LPS subgroups) at 10 μl/10 g of body weight. […] And then the absorbance of the Evans blue dye extracted in the supernatant was measured against formamide blank at 620 nm via standard curve method, and expressed as microgram of dye per 100 mg of wet lung weight. In addition, the concentration of albumin in BALF was measured at 628 nm using a spectrophotometer and an albumin measurement kit. The albumin concentration ratio assessed from BALF represented not only the albumin level but also the permeability of the pulmonary microvascular.

[3] = test system: isolated peritoneal macrophages; assay: Cell viability (MTT) assay with LPS/PGD2, peritoneal macrophages; format: cell-based, mice

**Q.** What does the source list for `CN([C@@H]1CCc2c(CC(=O)[O-])c3cccnc3n2C1)S(=O)(=O)c1ccc(F)cc1.[Na+]` [Sodium salt hydrate]?
**A.** BALF albumin contents (CS-induced ALI mice): remarkably reduced; protein levels of IL-1β, IL-6, TNF-α and KC, CSE-stimulated (RAW 264.7 macrophages [1]; 1 h pretreatment, CSE (4%) 24 hrs): inhibited; protein levels of IL-1β, IL-6, TNF-α and KC, PGD2-stimulated (RAW 264.7 macrophages [1]; 1 h pretreatment, PGD2 (10 μM) 24 hrs): inhibited; CSE-induced inhibition of IL-10, protein (RAW 264.7 macrophages [1]; CSE (4%), dose-dependent): reversed; PGD2-induced inhibition of IL-10, protein (RAW 264.7 macrophages [1]; PGD2 (10 μM), dose-dependent): reversed; mRNA levels of IL-1β, IL-6, TNF-α and KC, CSE-stimulated (RAW 264.7 macrophages [2]; CSE (4%) 24 hrs): inhibited; CSE-induced inhibition of IL-10, mRNA (RAW 264.7 macrophages [2]; CSE (4%), dose-dependent): reversed; mRNA levels of IL-1β, IL-6, TNF-α and KC, PGD2-stimulated (RAW 264.7 macrophages [2]; PGD2 (10 μM) 24 hrs): inhibited; PGD2-induced inhibition of IL-10, mRNA (RAW 264.7 macrophages [2]; PGD2 (10 μM), dose-dependent): reversed; LPS-induced pulmonary vascular leakage and extravasation of Evans Blue dye (LPS-induced ALI mice): significantly reduced; cytotoxicity (MTT), LPS plus CT-NA ([3]; LPS (100 ng/ml) plus CT-NA up to 100 μM): non-toxic; cytotoxicity (MTT), PGD2 plus CT-NA ([3]; PGD2 (10 μM) plus CT-NA up to 100 μM): non-toxic
